# Patent publication US8506964B2, “Fusion proteins and related compositions, methods and systems for treatment and/or prevention of atherosclerosis” (priority 2010, dated 2013)
# Assays:
# [1] = test system: apo E −/− mice; test: Subcutaneous immunization of apo E −/− mice with peptide test articles, plaque size in en face aorta; type: in vivo
# Source text: Inhibition of atherosclerosis in apo E −/− mice by immunization with fifteen different test articles based on fifteen different peptide fragments of apo B was investigated.
# In these experiments, apo E −/− mice received primary subcutaneous immunization at 6-7 weeks of age, followed by two boosters administered […]. The mice were fed a high cholesterol diet from 1 week after the second injection (10 weeks of age) and continued until sacrifice at 25 weeks of age. The effect of immunization on atherosclerosis formation was assessed by measuring plaque size (percent area stained with Oil Red O) in an en face preparation of the aorta.
# Based on the results from these and other experiments, four peptides were identified as particularly effective in reducing the progression of atherosclerosis.
# [2] = test system: mouse LDL; test: ELISA of sera for antibodies to mouse LDL; type: in vivo; conditions: parenteral immunization; data not shown
# Protocol: ELISA methods were used to quantitate serum Ig isotypes specific for the apoB-100 peptide as well as total IgG and IgM as previously described (ref. 19). Sera from immunized mice were tested for antibodies to mouse LDL by incubation (1/50, 1/150 and 1/450 dilutions) in plates coated with mouse LDL (10 μg/ml) and using alkaline phosphatase-conjugated anti-mouse-IgG as detector antibody. Sera from C57BL/6 mice immunized with OVA-CTB were assayed for reactivity to mouse or human LDL, or to apoB100, at dilutions of 1/25, 1/250 and 1/2500.
# [3] = subcutaneous immunization at 6-7 weeks, boosters 3 and 5 weeks later, high cholesterol diet, plaque size (percent area Oil Red O) at 25 weeks
Substance,"Reduction in atherosclerosis progression [1, 3]",other results
IEIGL EGKGF EPTLE ALFGK (IEIGLEGKGFEPTLEALFGK) [Peptide P45],"(−53%, p < 0.05)",–
ovalbumin,–,IgG antibody responses to mouse LDL [2]: did not lead to induction of significant IgG antibody responses
SLTST SDLQS GIIKN TASLK [Peptide P102],–,"Reduction in atherosclerosis progression ([1]; mouse, in vivo, sc): (−52%, p < 0.05)"
"ATRFK HLRKY TYNYE AESSS (ATRFKHLRKYTYNYEAESSS; Apolipoprotein B-100; UniProt P04114 43-62, looked up, fragment) [Peptide P2]","(−42%, p < 0.05)",–
KTTKQ SFDLS VKAQY KKNKH (KTTKQSFDLSVKAQYKKNKH) [Peptide P210],"(−49%, p = 0.06)",–
